From US9738614B2, “Malignant and non-malignant disease treatment with Ras antagonists” (PISCES THERAPEUTICS, LLC, priority 2011, dated 2017)

Key:
Format in all cases: cell-based
EJ cells = assay: IC50 assay with EJ bladder cancer cells; conditions: Homo sapiens, 1.5 to 25 μM, read-out: half-maximal inhibition of viability
Protocol: (§1) U87MG cells were seeded in a 24-well plate, 5000 cells per well, and incubated overnight at 37° C. in serum-free media. The next day they were treated in triplicate with 50 and 100 μM of each test compound (1), (2), (3), (4), and (5) and the reference compound FTS. After five days, the cells were trypsinized (0.5%), stained with trypan blue, and counted to determine the cell number per well. The half-maximal inhibitory concentration (IC50) values were calculated using Multiplex Reader-Fit software made by MiraiBio Group, Hitachi Solutions America, Ltd. In a typical experiment, the control wells averaged 138,000 cells. The results are presented graphically in FIG. 1. The test compounds at 50 μM allowed the following U87MG cell proliferation compared to control: compound (1)—37%, compound (2)—18%, compound (3)—10%, compound (4)—40%, and compound (5)—0%. The reference compound FTS at 50 μM allowed 7% cell proliferation compared to control.
EJ bladder cancer cells, which harbor a H-Ras mutation, were subjected to an IC50 assay similar to Example 6 above. EJ cells were grown in concentrations of compound (5) ranging from 1.5 to 25 μM.

MCF-7 cells = assay: IC50 assay with MCF-7 breast cancer cells; conditions: Homo sapiens, MCF7, 0.6 to 10 μM, read-out: half-maximal decrease in viability
Protocol: as §1
MCF-7 breast cancer cells, which harbor an activating “K-Ras variant” mutation, were subjected to an IC50 assay similar to Example 6 above. This “K-Ras variant” mutation is in a site that a microRNA binds to, destabilizing the mRNA that encodes Ras. […] MCF-7 cells were grown in concentrations of compound (5) ranging from 0.6 to 10 μM.

NF-1+/- mast cells = assay: NF-1+/- mast cell proliferation (3H-thymidine incorporation); conditions: 0-12.5 μM, 24 hours after SCF stimulation (FIG. 4B)
Protocol: (§2) Purified populations of NF-1+/−mast cells were stimulated with a maximum stimulating concentration of stem cell factor (SCF) in the presence of a control or compound (5) at concentrations of 10-15 μM. The activated, GTP-bound form of Ras (Ras-GTP) was measured 3 minutes subsequently using Western blot analysis. […] In parallel experiments, mast cell proliferation was measured using 3H-thymidine incorporation 24 hours after SCF stimulation in the presence of a control or compound (5) at concentrations of 0-12.5 μM. […] Each asterisk in FIG. 4B represents a statistical difference relative to the control using analysis of variance. (Yang, Feng-Chun, et. al. J Clin Invest 2003, 112(12), 1851-1861; Yang, Feng-Chun, et. al. Hum Mol Genet 2006, 15(11), 1921-1930).

USPC1 cells = assay: IC50 assay with USPC1 endometrial cancer cells; conditions: 1 to 50 μM, read-out: half-maximal inhibition of viability
Protocol: as §1
(§3) ECC1 (well differentiated) and USPC1 (poorly differentiated) endometrial cancer cells were subjected to IC50 assays similar to Example 6 above. The cells were grown in concentrations of compound (5) ranging from 1 to 50 μM.

GBM6 cells = assay: IC50 assay with GBM6 glioblastoma cells; conditions: Homo sapiens, 1 to 5 μM, read-out: half-maximal effect on cell viability
Protocol: as §1
An IC50 assay similar to Example 6 above was performed with GBM6 cells prepared from minced, freshly harvested tumor tissue. GBM6 cells were grown in the presence of compound (5) at concentrations ranging from 1 to 5 μM.

[1] = tested on: primary human lung fibroblasts; assay: Inhibition of TGF-β induced myofibroblast formation (α-SMA Western blot); conditions: Homo sapiens, Fibroblast, TGF-β 72 hours, 0.5 to 2 μM
Protocol: Primary human lung fibroblasts were stimulated for 72 hours with transforming growth factor beta (TGF-β) to induce their differentiation to an alpha smooth muscle actin (α-SMA) expressing activated myofibroblasts cell fate. […] The activin like kinase receptor (ALK5) inhibitor SB431542 was used as a positive control. Myofibroblast formation was evaluated by Western blot by examining changes in α-SMA levels.

JW19 cells = assay: IC50 assay with JW19 mouse MPNST cells; conditions: 0.5 to 20 μM, read-out: half-maximal effect on viability
Protocol: as §1
Mouse models of NF-1 related MPNST have been made. Cells from two such mice, JW16 and JW19, have been isolated and propagated. The JW16 and JW19 cells were subjected to IC50 assays similar to Example 6 above.

LAM cells = assay: IC50 assay with lymphangioleiomyomatosis (LAM) cells; conditions: Homo sapiens, 0.1 to 50 μM, read-out: half-maximal inhibition of viability
Protocol: as §1
Human lymphangioleiomyomatosis (LAM) cells were subjected to an IC50 assay similar to Example 6 above.

[2] = tested on: activated, GTP-bound form of Ras (Ras-GTP); assay: Ras-GTP Western blot in SCF-stimulated NF-1+/- mast cells; conditions: 10-15 μM, 3 minutes after SCF stimulation (FIG. 4A)
Protocol: as §2

sNFO2.2 cells = assay: IC50 assay with sNFO2.2 MPNST cells; conditions: Homo sapiens, 0.5 to 20 μM, read-out: half-maximal effect on viability
Protocol: as §1
(§4) Two additional MPNST cell lines, sNF94.3 and sNFO2.2, were subjected to IC50 assays similar to Examples 6 and 11 above. Like the ST88-14 cells from Example 11, the sNF94.3 and sNFO2.2 cells came from NF-1 patients too.

ECC1 cells = assay: IC50 assay with ECC1 endometrial cancer cells; conditions: Homo sapiens, ECC-1, 1 to 50 μM, read-out: half-maximal inhibition of viability
Protocol: as §1, §3

sNF94.3 cells = assay: IC50 assay with sNF94.3 MPNST cells; conditions: Homo sapiens, 0.5 to 20 μM, read-out: half-maximal effect on viability
Protocol: as §1, §4

IC50 (EJ cells): 2500 nM
IC50 (MCF-7 cells): 2000 nM
IC50 (USPC1 cells): 2000 nM
IC50 (GBM6 cells): 3500 nM
IC50 (ECC1 cells): 4000 nM
SMILES: CC(C)=CCC/C(C)=C/CC/C(C)=C/CSc1ccccc1C1=NCCN1 [compound (5), 2-(2-{[(2E,6E)-3,7,11-trimethyldodeca-2,6,10-trien-1-yl]sulfanyl}phenyl)-4,5-dihydro-1H-imidazole]
mast cell proliferation relative to the control (NF-1+/- mast cells): reduced
EC50 [1]: ~1000 nM
IC50 (JW19 cells): 4000 nM
IC50 (LAM cells): 4000 nM
level of Ras-GTP relative to the control [2]: significantly reduced
IC50 (sNFO2.2 cells): 2900 nM
IC50 (sNF94.3 cells): 2700 nM
